Results taken from patent US6649367B2, “Human cancer cell line malignantly altered by expression of angiogenic factor” (Eisai Co., Ltd, priority 2001, dated 2003).

System: KP-1/VEGF cells
Test: Effect on in vivo angiogenesis induced by KP-1/VEGF (chamber transplanted in mouse dorsal air sac, 51Cr-labelled blood cells)
Conditions: for In vivo angiogenesis-inducing activity (volume of blood vessel): C57BL/6N mouse, KP-1/VEGF chamber, four days after transplantation; for In vivo angiogenesis inhibitory effect: =(X−B)/(A−B)×100, A control, B collagen, X administered group
Method: 3×10^6 cells/0.17 ml suspension of KP-1/VEGF cells was prepared using a collagen solution. In a chamber formed by adhering 0.45-μm Durapore filter membrane (Millipore) to a chamber ring (Millipore), 0.17 ml of the suspension was injected through the injection inlet and sealed. An air sac of about 10 ml was formed on dorsal subcutaneous portion of a 6-week-old female C57BL/6N mouse under anesthesia and the chamber enclosing the cells therein was transplanted in the air sac.
From the day of transplantation, ZD6474 as a VEGFR kinase inhibitor and ZD1839(Iressa) as an EGFR kinase inhibitor were each orally administered in dosage of 25, 50 or 100 mg/kg once a day for 4 days.
Four days after the transplantation, 2,500,000 cpm/ml of blood cell suspension prepared by labeling the cells with sodium chromate (^51Cr) (Amersham Pharmacia) was injected in an amount of 0.2 ml each through the tail vein of the chamber-transplanted mouse, and then the skin portion contacting the chamber was cut out and the radioactivity thereof was measured by use of a γ-counter. From the measured radioactivity, the amount of blood (volume of blood vessel) was calculated and was used as an index of in vivo angiogenesis-inducing activity.
Further, providing that the in vivo angiogenesis-inducing activity of control is A, the in vivo angiogenesis-inducing activity of collagen is B, and the in vivo angiogenesis-inducing activity of each administered group is X, in vivo angiogenesis inhibitory effect was obtained by the following equation. In vivo angiogenesis inhibitory effect (%)

[1] = 25 mg/kg orally once a day for 4 days
[2] = 50 mg/kg orally once a day for 4 days
[3] = 100 mg/kg orally once a day for 4 days

| Compound | In vivo angiogenesis-inducing activity (volume of blood vessel) [1] | In vivo angiogenesis-inducing activity (volume of blood vessel) [2] | In vivo angiogenesis-inducing activity (volume of blood vessel) [3] | In vivo angiogenesis inhibitory effect [1] | In vivo angiogenesis inhibitory effect [2] | In vivo angiogenesis inhibitory effect [3] |
| --- | --- | --- | --- | --- | --- | --- |
| COc1cc2ncnc(Nc3ccc(F)c(Cl)c3)c2cc1OCCCN1CCOCC1 [ZD1839] | 2.75 ± 0.66 µL | 2.77 ± 0.47 µL | 2.76 ± 0.73 µL |  |  |  |
| COc1cc2c(Nc3ccc(Br)cc3F)ncnc2cc1OCC1CCN(C)CC1 [ZD6474] | 2.56 ± 0.26 µL | 2.18 ± 0.38 µL | 1.47 ± 0.40 µL | 68.0% | 40.8% | −10.9% |
